{"source": "paper PMC3030572", "about": "“Antamanide, a Derivative of Amanita phalloides, Is a Novel Inhibitor of the Mitochondrial Permeability Transition Pore” (PLoS ONE, 2011)", "key": {"[1]": {"system": "HeLa cells", "type": "cell-based, human", "conditions": "30 min preincubation, then TAT-HK 1 hour", "description": "A, cytofluorimetric analysis of cell death induction in HeLa cells treated for 1 hour with TAT-HK. […] TAT-Ctr was used as a negative control. Cells were double stained with Annexin V-FITC and propidium iodide (PI), to respectively evaluate apoptosis induction as phosphatidylserine exposure on the cell surface (increased Annexin V-FITC staining) and cell death as plasma membrane permeabilization (increased PI staining). We considered Annexin V^+ as early/intermediate apoptotic cells; PI^+ as necrotic cells; double stained as late apoptotic cells. Bar graphs display the percentage of each cell population (mean±SD, n = 4; double positive cells are added to both bars). […] B, histograms reporting a representative experiment, where viable cells are indicated in red, PI^+- and Annexin V^+-cells are indicated in grey and green, respectively.\nFlow cytometry recordings were performed as described, [51], [52]. Briefly, at the end of the incubation, cells were resuspended in 135 mM NaCl, 10 mM HEPES, 5 mM CaCl2 and incubated at 37°C in either TMRM (10 nM) to detect mitochondrial depolarization (reduced TMRM staining), or in FITC-conjugated Annexin-V and propidium iodide (PI, 1 µg/ml), to detect phosphatidylserine exposure on the cell surface (increased FITC-conjugated Annexin-V staining) and loss of plasma membrane integrity (PI permeability and staining). […] Samples were analyzed on a FACSCanto II flow cytometer (Becton Dickinson, San Diego, CA, USA). Data acquisition and analysis were performed using FACSDiva software."}, "[2]": {"system": "organic anion-transporting polypeptide family", "conditions": "also our unpublished data; ref [8]; cited from earlier work", "description": "(§1) Antamanide (AA) is a monocyclic, homodetic decapeptide isolated from the poisonous mushroom Amanita phalloides. […] Little is known about the biochemical mechanisms underlying these diverse bioactivities. […] The CyP chaperone activity, i.e. the isomerization to the cis form of the peptidyl bonds preceding each proline, is involved in folding and association processes required for proteins to perform thei ..."}, "[3]": {"system": "mitochondria from CyP-D knock-out fibroblasts", "assay": "mitochondrial respiration assay, CyP-D knock-out fibroblast mitochondria", "type": "biochemical, mouse", "conditions": "polarography, Clark electrode, 25°C", "description": "(§2) Figure 3 Effect of AA on respiration and PTP opening in mitochondria of wild-type or CyP-D knock-out mouse fibroblasts. A, upper part: Western blot analysis assessing CyP-D expression in fibroblasts obtained from either wild-type or CyP-D knock-out mice; HKII was utilized to verify protein load; lower part: representative experiment showing oxygen consumption as assessed by polarography (see Methods) in mitochondria isolated from wild-type fibroblasts in the absence (a) or presence (b) of 8 µM AA. Experiments were started by adding 0.6 mg of mitochondria (Mito), followed by 100 µM ADP and 50 µM 2,4-dinitrophenol (DNP) (arrows). Each experiment was repeated at least three times. Oxygen consumption is reported as percentage of initial value on the y axis. B, bar graphs report the ratio between the CRC detected in the presence (CRC) and absence (CRC0) of increasing concentrations of AA, in mitochondria from either wild-type fibroblasts (left) or CyP-D knock-out fibroblasts (right). […] Results are mean±SD of at least 4 experiments.\n(§3) Mitochondrial oxygen consumption was measured polarographically at 25°C with a Clark oxygen electrode (Yellow Springs Instruments, OH, USA). Mitochondria (0.6 mg per experimental point) were incubated in a solution of 130 mM KCl, 10 mM Tris-Mops, 1 mM Pi-Tris, 20 mM EGTA-Tris and 2 µM rotenone/5 mM succinate to assay basal respiration (state 4). […]"}, "[4]": {"system": "phallotoxins and amatoxins", "conditions": "cited from earlier work", "description": "Antamanide (AA) is a monocyclic, homodetic decapeptide isolated from the poisonous mushroom Amanita phalloides. […] Little is known about the biochemical mechanisms underlying these diverse bioactivities."}, "[5]": {"system": "mitochondrial permeability transition pore (PTP), wild-type fibroblasts", "type": "cell-based, mouse", "conditions": "Figure 4C", "description": "A, B, PTP opening of digitonized wild-type (A) or CyP-D knock-out (B) fibroblasts was measured with the whole-cell CRC assay. Experiments were started by the addition of digitonized cells (not shown) followed by pulses of Ca^2+ (5 µM each) and are plotted as in Figure 1B. The use of AA is shown with a red trace. Alamethicin (Alm, 1 µM) was added at the end of each measurement to fully release Ca^2+ from intracellular stores. […] D, isomerase activity assay (see Materials and Methods): after addition of the substrate peptide N-succinyl-Ala-Ala-cis-trans-Pro-Phe-p-nitroanilide (arrow), chimotrypsin cleaves the trans-isomeric form, causing a rise in absorbance.\nThe Ca^2+ retention capacity (CRC) assay was used to assess PTP opening following trains of Ca^2+ pulses and measured fluorimetrically at 25°C in the presence of the Ca^2+ indicator Calcium Green-5N (1 µM; λexc: 505 nm; λem: 535 nm; Molecular Probes). […] Digitonin was then eliminated and the number of cells carefully assessed before starting each experiment. […] Cells or mitochondria were then exposed to Ca^2+ spikes, and fluorescence drops were used to assess mitochondrial Ca^2+ uptake. PTP opening was detected as a fluorescence increase. Calcium Green-5N fluorescence was measured either with a fluorescence spectrometer LS50B (Perkin Elmer, Waltham, MA) or with a Fluoroskan Ascent FL fluorimeter (Thermo Electron Corporation, Waltham, MA)."}, "[6]": {"system": "membrane permeabilization by phalloidin", "assay": "membrane permeabilization by phalloidin", "type": "cell-based", "conditions": "data not shown"}, "[7]": {"system": "immunosuppressant", "parameters": "method as in PMID 1494502, PMID 8441706", "conditions": "ref [10], [11]; cited from earlier work", "description": "as §1"}, "[8]": {"system": "HeLa cells", "type": "cell-based, human", "conditions": "clotrimazole; data not shown"}, "[9]": {"system": "mitochondria isolated from wild-type fibroblasts", "assay": "mitochondrial respiration assay, wild-type fibroblast mitochondria", "type": "biochemical, mouse", "conditions": "8 µM AA; polarography, Clark electrode, 25°C; repeated at least three times", "description": "as §2, §3"}}}
{"substance": "Antamanide [AA]", "values": [{"measurement": "effect on TAT-HK-induced necrotic response", "setting": "[1]", "value": "virtually abolished the necrotic response"}, {"measurement": "residual apoptosis after TAT-HK", "setting": "[1]", "value": "a small fraction of cells undergoing apoptosis was still detectable"}, {"measurement": "protection from TAT-HK induced death", "setting": "[1]; n = 4, Student's t test *: p<0.01", "value": "significantly protected from TAT-HK induced death"}, {"measurement": "inhibition of cell uptake of phalloidin", "setting": "[2]", "value": "block cell uptake of the phallotoxin phalloidin"}, {"measurement": "oxygen consumption", "setting": "[3]", "value": "unaffected"}, {"measurement": "antidote activity", "setting": "[4]; ref [2]", "value": "strong antidote activity against phallotoxins and amatoxins"}, {"measurement": "abrogation of toxic effects of phalloidin", "setting": "[4]; ref [8], [9]", "value": "abrogates the toxic effects of the phallotoxin phalloidin"}, {"measurement": "PTP inhibition (CRC/CRC0)", "setting": "[5]; digitonized wild-type cells, mean±SD of at least 4 experiments", "value": "display an inhibitory effect on the PTP in wild-type"}, {"measurement": "CRC/CRC0: difference from CRC of untreated mitochondria", "setting": "[5]; wild-type fibroblasts, Student's t test", "value": "significant difference (Student's t test analysis; *: p<0.01)"}, {"measurement": "inhibition of membrane permeabilization by phalloidin", "setting": "[6]", "value": "inhibits membrane permeabilization by phalloidin"}, {"measurement": "immunosuppressant activity", "setting": "[7]", "value": "acts as an immunosuppressant"}, {"measurement": "inhibition of clotrimazole-induced cell death", "setting": "[8]", "value": "inhibited the process"}, {"measurement": "oxygen consumption", "setting": "[9]", "value": "unaffected"}]}
